Reference: patent US12723063B2, “GIPR-agonist compounds” (Eli Lilly and Company, priority 2019, dated 2026)

Assays:
[1] = Pharmacokinetics in male Sprague Dawley rats, single subcutaneous administration; type: in vivo, Sprague Dawley rat; conditions: 100 nmol/kg single SC, mean n = 3 (example 3 n = 1); for CL/F / half-life / Tmax: rat, plasma
Experimental: The pharmacokinetics of select Examples are evaluated following a single subcutaneous (SC) administration of 100 nmol/kg to male Sprague Dawley rats. Blood samples are collected over 168 hours following SC administration. Pharmacokinetic parameters are calculated using individual plasma concentrations. A qualified LC/MS method that measures the intact mass of the Example is used to determine plasma (K3 EDTA) concentrations. Each peptide and an analog as an internal standard are extracted from 100% rat plasma using a protein precipitation method. Instruments are combined for LC/MS detection. Mean pharmacokinetic parameters for the Examples are shown in […]

insulin secretion = experiment: In vivo effect on insulin secretion (ivGTT) in male Wistar rats; parameters: species or system Wistar rat
Experimental: Male Wistar rats with femoral artery and femoral vein canulas (Envigo, Indianapolis, IN) (280-320 grams) are single-housed in polycarbonate cages with filter tops. Rats maintained on a 12:12 h light-dark cycle (lights on at 6:00 A.M.) at 21° C. and receive food and deionized water ad libitum. Rats are randomized by body weight and dosed 1.5 mL/kg subcutaneously (s.c.) at doses of 0.3, 1.0, 3, 10, 30, and 100 nmol/kg 16 hours prior to glucose administration then fasted. Animals are weighed and anesthetized with sodium pentobarbital dosed intraperitoneally (i.p.) (65 mg/kg, 30 mg/mL). At time 0, a blood sample is collected into EDTA tubes after which glucose is administered intravenously (i.v.) ([…], 5 mL/kg). Blood samples are collected for glucose and insulin levels at 2, 4, 6, 10, 20 and 30 min post-intravenous administration of glucose. Plasma glucose levels are determined using a clinical chemistry analyzer. Plasma insulin is determined using an electrochemiluminescence assay (Meso Scale, Gaithersburg, MD). […] Results are presented (SEM)(N).

Structure (SMILES): CC[C@H](C)[C@H](NC(=O)[C@H](CCCN)NC(=O)[C@H](CC(=O)O)NC(=O)[C@H](CC(C)C)NC(=O)[C@](C)(CC(C)C)NC(=O)[C@@H](NC(=O)[C@H](CO)NC(=O)[C@H](Cc1ccc(O)cc1)NC(=O)[C@H](CC(=O)O)NC(=O)[C@H](CO)NC(=O)[C@@H](NC(=O)[C@H](Cc1ccccc1)NC(=O)[C@@H](NC(=O)CNC(=O)[C@H](CCC(=O)O)NC(=O)C(C)(C)NC(=O)[C@@H](N)Cc1ccc(O)cc1)[C@@H](C)O)[C@@H](C)CC)[C@@H](C)CC)C(=O)N[C@@H](Cc1c[nH]cn1)C(=O)N[C@@H](CCC(N)=O)C(=O)NC(C)(C)C(=O)N[C@@H](CC(=O)O)C(=O)N[C@@H](Cc1ccccc1)C(=O)N[C@H](C(=O)N[C@@H](CCC(=O)O)C(=O)N[C@@H](Cc1ccc(O)cc1)C(=O)N[C@@H](CCCCNC(=O)COCCOCCNC(=O)COCCOCCNC(=O)CC[C@H](NC(=O)CCCCCCCCCCCCCCCCCCC(=O)O)C(=O)O)C(=O)N[C@@H](CC(C)C)C(=O)N[C@@H](CCC(=O)O)C(=O)NCC(=O)NCC(=O)N1CCC[C@H]1C(=O)N[C@@H](CO)C(=O)N[C@@H](CO)C(=O)NCC(=O)N[C@@H](C)C(=O)N1CCC[C@H]1C(=O)N1CCC[C@H]1C(=O)N1CCC[C@H]1C(=O)N[C@@H](CO)C(N)=O)C(C)C [Example 6]
- AUCInf/Dose [1]: 271 hr*kg*nmol/L/nmol
- Cmax/Dose [1]: 4.07 kg*nmol/L/nmol
- CL/F [1]: 3.69 mL/h/kg
- half-life [1]: 34.8 h

Structure (SMILES): CC[C@H](C)[C@H](NC(=O)[C@H](CO)NC(=O)[C@H](Cc1ccc(O)cc1)NC(=O)[C@H](CC(=O)O)NC(=O)[C@H](CO)NC(=O)[C@@H](NC(=O)[C@H](Cc1ccccc1)NC(=O)[C@@H](NC(=O)CNC(=O)[C@H](CCC(=O)O)NC(=O)[C@@H](C)NC(=O)[C@@H](N)Cc1ccc(O)cc1)[C@@H](C)O)[C@@H](C)CC)C(=O)N[C@@H](CC(C)C)C(=O)N[C@@H](CC(C)C)C(=O)N[C@@H](CC(=O)O)C(=O)N[C@@H](CCCCN)C(=O)N[C@@H](CCCCNC(=O)COCCOCCNC(=O)COCCOCCNC(=O)CC[C@H](NC(=O)CCCCCCCCCCCCCCCCCCC(=O)O)C(=O)O)C(=O)N[C@@H](C)C(=O)N[C@@H](CCC(N)=O)C(=O)NC(C)(C)C(=O)N[C@@H](CC(=O)O)C(=O)N[C@@H](Cc1ccccc1)C(=O)N[C@H](C(=O)N[C@@H](CC(N)=O)C(=O)N[C@@H](Cc1c[nH]c2ccccc12)C(=O)N[C@@H](CC(C)C)C(=O)N[C@@H](CC(C)C)C(=O)N[C@@H](C)C(=O)N[C@@H](CCC(N)=O)C(=O)NCC(=O)N1CCC[C@H]1C(=O)N[C@@H](CO)C(=O)N[C@@H](CO)C(=O)NCC(=O)N[C@@H](C)C(=O)N1CCC[C@H]1C(=O)N1CCC[C@H]1C(=O)N1CCC[C@H]1C(=O)N[C@@H](CO)C(N)=O)C(C)C [Example 1]
- AUCInf/Dose [1]: 280 hr*kg*nmol/L/nmol
- Cmax/Dose [1]: 3.62 kg*nmol/L/nmol
- CL/F [1]: 3.57 mL/h/kg
- Tmax [1]: 24 h
- half-life [1]: 37.4 h

Structure (SMILES): CC[C@H](C)[C@H](NC(=O)[C@H](CO)NC(=O)[C@H](Cc1ccc(O)cc1)NC(=O)[C@H](CC(=O)O)NC(=O)[C@H](CO)NC(=O)[C@@H](NC(=O)[C@H](Cc1ccccc1)NC(=O)[C@@H](NC(=O)CNC(=O)[C@H](CCC(=O)O)NC(=O)[C@@H](C)NC(=O)[C@@H](N)Cc1ccc(O)cc1)[C@@H](C)O)[C@@H](C)CC)C(=O)N[C@@H](CC(C)C)C(=O)N[C@@H](CC(C)C)C(=O)N[C@@H](CC(=O)O)C(=O)N[C@@H](CCCCN)C(=O)N[C@@H](CCCCNC(=O)COCCOCCNC(=O)COCCOCCNC(=O)CC[C@H](NC(=O)CCCCCCCCCCCCCCCCC(=O)O)C(=O)O)C(=O)N[C@@H](C)C(=O)N[C@@H](CCC(N)=O)C(=O)NC(C)(C)C(=O)N[C@@H](CC(=O)O)C(=O)N[C@@H](Cc1ccccc1)C(=O)N[C@H](C(=O)N[C@@H](CC(N)=O)C(=O)N[C@@H](Cc1c[nH]c2ccccc12)C(=O)N[C@@H](CC(C)C)C(=O)N[C@@H](CC(C)C)C(=O)N[C@@H](C)C(=O)N[C@@H](CCC(N)=O)C(=O)NCC(=O)N1CCC[C@H]1C(=O)N[C@@H](CO)C(=O)N[C@@H](CO)C(=O)NCC(=O)N[C@@H](C)C(=O)N1CCC[C@H]1C(=O)N1CCC[C@H]1C(=O)N1CCC[C@H]1C(=O)N[C@@H](CO)C(N)=O)C(C)C [Example 2]
- AUCInf/Dose [1]: 304 hr*kg*nmol/L/nmol
- Cmax/Dose [1]: 5.47 kg*nmol/L/nmol
- CL/F [1]: 3.3 mL/h/kg
- Tmax [1]: 12 h
- half-life [1]: 26.9 h

Structure (SMILES): CC[C@H](C)[C@H](NC(=O)[C@H](CCCCN)NC(=O)[C@H](CC(=O)O)NC(=O)[C@H](CC(C)C)NC(=O)[C@](C)(CC(C)C)NC(=O)[C@@H](NC(=O)[C@H](CO)NC(=O)[C@H](Cc1ccc(O)cc1)NC(=O)[C@H](CC(=O)O)NC(=O)[C@H](CO)NC(=O)[C@@H](NC(=O)[C@H](Cc1ccccc1)NC(=O)[C@@H](NC(=O)CNC(=O)[C@H](CCC(=O)O)NC(=O)C(C)(C)NC(=O)[C@@H](N)Cc1ccc(O)cc1)[C@@H](C)O)[C@@H](C)CC)[C@@H](C)CC)C(=O)N[C@@H](Cc1c[nH]cn1)C(=O)N[C@@H](CCC(N)=O)C(=O)NC(C)(C)C(=O)N[C@@H](CC(=O)O)C(=O)N[C@@H](Cc1ccccc1)C(=O)N[C@H](C(=O)N[C@@H](CCC(=O)O)C(=O)N[C@@H](Cc1ccc(O)cc1)C(=O)N[C@@H](CCCCNC(=O)COCCOCCNC(=O)COCCOCCNC(=O)CC[C@H](NC(=O)CCCCCCCCCCCCCCCCCCC(=O)O)C(=O)O)C(=O)N[C@@H](CC(C)C)C(=O)N[C@@H](CCC(=O)O)C(=O)NCC(=O)NCC(=O)N1CCC[C@H]1C(=O)N[C@@H](CO)C(=O)N[C@@H](CO)C(=O)NCC(=O)N[C@@H](C)C(=O)N1CCC[C@H]1C(=O)N1CCC[C@H]1C(=O)N1CCC[C@H]1C(=O)N[C@@H](CO)C(N)=O)C(C)C [Example 5]
- AUCInf/Dose [1]: 239 hr*kg*nmol/L/nmol
- Cmax/Dose [1]: 4.61 kg*nmol/L/nmol
- CL/F [1]: 4.2 mL/h/kg
- Tmax [1]: 24 h
- half-life [1]: 27.1 h
- insulin secretion during intravenous glucose tolerance test (insulin secretion; 0.3 nmol/kg s.c. 16 hours prior to glucose): 36.2
- insulin secretion during intravenous glucose tolerance test (insulin secretion; 1.0 nmol/kg s.c. 16 hours prior to glucose): 45.3
- insulin secretion during intravenous glucose tolerance test (insulin secretion; 3.0 nmol/kg s.c. 16 hours prior to glucose): 80.6
- insulin secretion during intravenous glucose tolerance test (insulin secretion; 10 nmol/kg s.c. 16 hours prior to glucose): 122.0
- insulin secretion during intravenous glucose tolerance test (insulin secretion; 30 nmol/kg s.c. 16 hours prior to glucose): 144
- insulin secretion during intravenous glucose tolerance test (insulin secretion; 100 nmol/kg s.c. 16 hours prior to glucose): 212.7
- Insulin secretion (ivGTT) ED50 (insulin secretion; s.c., n = 1): 18.4 (n = 1) nmol/kg

Structure (SMILES): CC[C@H](C)[C@H](NC(=O)[C@H](Cc1ccccc1)NC(=O)[C@@H](NC(=O)CNC(=O)[C@H](CCC(=O)O)NC(=O)C(C)(C)NC(=O)[C@@H](N)Cc1ccc(O)cc1)[C@@H](C)O)C(=O)N[C@@H](CO)C(=O)N[C@@H](CC(=O)O)C(=O)N[C@@H](Cc1ccc(O)cc1)C(=O)N[C@@H](CO)C(=O)N[C@H](C(=O)N[C@@](C)(CC(C)C)C(=O)N[C@@H](CC(C)C)C(=O)N[C@@H](CC(=O)O)C(=O)N[C@@H](CCCCN)C(=O)N[C@@H](CCCCNC(=O)COCCOCCNC(=O)COCCOCCNC(=O)CC[C@H](NC(=O)CCCCCCCCCCCCCCCCCCC(=O)O)C(=O)O)C(=O)N[C@@H](Cc1c[nH]cn1)C(=O)N[C@@H](CCC(N)=O)C(=O)NC(C)(C)C(=O)N[C@@H](CC(=O)O)C(=O)N[C@@H](Cc1ccccc1)C(=O)N[C@H](C(=O)N[C@@H](CCC(=O)O)C(=O)N[C@@H](Cc1ccncc1)C(=O)N[C@@H](CC(C)C)C(=O)N[C@@H](CC(C)C)C(=O)N[C@@H](CCC(=O)O)C(=O)N[C@@H](C)C(=O)NCC(=O)N1CCC[C@H]1C(=O)N[C@@H](CO)C(=O)N[C@@H](CO)C(=O)NCC(=O)N[C@@H](C)C(=O)N1CCC[C@H]1C(=O)N1CCC[C@H]1C(=O)N1CCC[C@H]1C(=O)N[C@@H](CO)C(N)=O)C(C)C)[C@@H](C)CC [Example 3]
- AUCInf/Dose [1]: 130 hr*kg*nmol/L/nmol
- Cmax/Dose [1]: 3.03 kg*nmol/L/nmol
- CL/F [1]: 7.67 mL/h/kg
- Tmax [1]: 12 h
- half-life [1]: 24.9 h
